Measured values reported in the NIST ThermoML archive (doi:10.1021/je300590v).
Numbers after ± are expanded uncertainties.

Conditions: Vibrating tube method

**Q.** What does the source list for O=C=O [carbon dioxide]?
**A.** mass density (273.15 K, 1001 kPa, Gas): 21.2 ± 0.2 kg/m3; mass density (273.15 K, 2001 kPa, Gas): 45.7 ± 0.2 kg/m3; mass density (273.15 K, 3001 kPa, Gas): 77.3 ± 0.2 kg/m3; mass density (273.15 K, 3300 kPa, Gas): 89.9 ± 0.2 kg/m3; mass density (273.15 K, 3500 kPa, Liquid): 928.1 ± 0.9 kg/m3; mass density (273.15 K, 4001 kPa, Liquid): 932.4 ± 0.9 kg/m3; mass density (273.15 K, 5001 kPa, Liquid): 940.7 ± 0.9 kg/m3; mass density (273.15 K, 6000 kPa, Liquid): 948.2 ± 0.9 kg/m3; mass density (273.15 K, 7000 kPa, Liquid): 955.3 ± 0.9 kg/m3; mass density (273.15 K, 8003 kPa, Liquid): 961.9 ± 0.8 kg/m3; mass density (273.15 K, 9001 kPa, Liquid): 968.1 ± 0.8 kg/m3; mass density (273.15 K, 10002 kPa, Liquid): 974.1 ± 0.8 kg/m3; mass density (273.15 K, 11003 kPa, Liquid): 979.7 ± 0.8 kg/m3; mass density (273.15 K, 12000 kPa, Liquid): 985.1 ± 0.8 kg/m3; mass density (273.15 K, 13004 kPa, Liquid): 990.1 ± 0.8 kg/m3; mass density (273.15 K, 14002 kPa, Liquid): 995 ± 0.8 kg/m3; mass density (273.15 K, 15001 kPa, Liquid): 999.7 ± 0.8 kg/m3; mass density (273.15 K, 16002 kPa, Liquid): 1004.3 ± 0.7 kg/m3; mass density (273.15 K, 17000 kPa, Liquid): 1008.6 ± 0.7 kg/m3; mass density (273.15 K, 18001 kPa, Liquid): 1012.8 ± 0.7 kg/m3; mass density (273.15 K, 19001 kPa, Liquid): 1017 ± 0.7 kg/m3; mass density (273.15 K, 20000 kPa, Liquid): 1020.8 ± 0.7 kg/m3; mass density (283.15 K, 1000 kPa, Gas): 20.4 ± 0.2 kg/m3; mass density (283.15 K, 2001 kPa, Gas): 43.1 ± 0.2 kg/m3; mass density (283.15 K, 3001 kPa, Gas): 70.9 ± 0.2 kg/m3; mass density (283.15 K, 4000 kPa, Gas): 108.4 ± 0.3 kg/m3; mass density (283.15 K, 4400 kPa, Gas): 130.1 ± 0.3 kg/m3; mass density (283.15 K, 5001 kPa, Liquid): 869.1 ± 1.1 kg/m3; mass density (283.15 K, 6003 kPa, Liquid): 882.2 ± 1 kg/m3; mass density (283.15 K, 7000 kPa, Liquid): 893.3 ± 1 kg/m3; mass density (283.15 K, 8001 kPa, Liquid): 903 ± 0.9 kg/m3; mass density (283.15 K, 9001 kPa, Liquid): 912.2 ± 0.9 kg/m3; mass density (283.15 K, 10001 kPa, Liquid): 920.4 ± 0.8 kg/m3; mass density (283.15 K, 11001 kPa, Liquid): 928.2 ± 0.8 kg/m3; mass density (283.15 K, 12000 kPa, Liquid): 935.5 ± 0.8 kg/m3; mass density (283.15 K, 13001 kPa, Liquid): 942.2 ± 0.8 kg/m3; mass density (283.15 K, 14001 kPa, Liquid): 948.3 ± 0.8 kg/m3; mass density (283.15 K, 15000 kPa, Liquid): 954.3 ± 0.8 kg/m3; mass density (283.15 K, 16001 kPa, Liquid): 960.1 ± 0.8 kg/m3; mass density (283.15 K, 17001 kPa, Liquid): 965.5 ± 0.8 kg/m3; mass density (283.15 K, 18002 kPa, Liquid): 970.8 ± 0.7 kg/m3; mass density (283.15 K, 19001 kPa, Liquid): 975.7 ± 0.7 kg/m3; mass density (283.15 K, 20000 kPa, Liquid): 980.4 ± 0.7 kg/m3; mass density (293.15 K, 1011 kPa, Gas): 19.8 ± 0.2 kg/m3; mass density (293.15 K, 2001 kPa, Gas): 41 ± 0.2 kg/m3; mass density (293.15 K, 3001 kPa, Gas): 66.2 ± 0.2 kg/m3; mass density (293.15 K, 4000 kPa, Gas): 97.3 ± 0.2 kg/m3; mass density (293.15 K, 5000 kPa, Gas): 140.4 ± 0.3 kg/m3; mass density (293.15 K, 5600 kPa, Gas): 182.2 ± 0.5 kg/m3; mass density (293.15 K, 5800 kPa, Liquid): 774.1 ± 1.2 kg/m3; mass density (293.15 K, 6001 kPa, Liquid): 783.3 ± 1.2 kg/m3; mass density (293.15 K, 7003 kPa, Liquid): 809.1 ± 1.1 kg/m3; mass density (293.15 K, 8001 kPa, Liquid): 827.5 ± 1 kg/m3; mass density (293.15 K, 9002 kPa, Liquid): 843.2 ± 0.9 kg/m3; mass density (293.15 K, 10001 kPa, Liquid): 856.1 ± 0.9 kg/m3; mass density (293.15 K, 11001 kPa, Liquid): 867.7 ± 0.9 kg/m3; mass density (293.15 K, 12000 kPa, Liquid): 877.9 ± 0.8 kg/m3; mass density (293.15 K, 13000 kPa, Liquid): 887.3 ± 0.8 kg/m3; mass density (293.15 K, 14000 kPa, Liquid): 895.9 ± 0.8 kg/m3; mass density (293.15 K, 15003 kPa, Liquid): 904 ± 0.8 kg/m3; mass density (293.15 K, 16003 kPa, Liquid): 911.5 ± 0.8 kg/m3; mass density (293.15 K, 17001 kPa, Liquid): 918.6 ± 0.8 kg/m3; mass density (293.15 K, 18002 kPa, Liquid): 925 ± 0.8 kg/m3; mass density (293.15 K, 19002 kPa, Liquid): 931.2 ± 0.8 kg/m3; mass density (293.15 K, 20000 kPa, Liquid): 937.1 ± 0.8 kg/m3
